Results published in ChEMBL document CHEMBL5465560, “Selectivity Literature for EUbOPEN Chemogenomic Library” (2024).
Values belong to the compound of their own block, whether it stands above or below them.

Legend:
[1] = target: Serine/threonine-protein kinase MRCK beta (Homo sapiens) (UniProt Q9Y5S2); experiment: Selectivity interaction (KinomeScan (DiscoverX)) EUB0001079a CDC42BPB; conditions: at 1 µM
[2] = target: Dual specificity protein kinase CLK1 (Homo sapiens, UniProt P49759); experiment: Selectivity interaction (SelectScreen profiling (Invitrogen)) EUB0000607a CLK1; conditions: at 2 µM
[3] = target: T1, Serine/threonine-protein kinase Chk1 (Homo sapiens) (UniProt O14757); conditions: at 10 µM
T1 sequence (whole entry): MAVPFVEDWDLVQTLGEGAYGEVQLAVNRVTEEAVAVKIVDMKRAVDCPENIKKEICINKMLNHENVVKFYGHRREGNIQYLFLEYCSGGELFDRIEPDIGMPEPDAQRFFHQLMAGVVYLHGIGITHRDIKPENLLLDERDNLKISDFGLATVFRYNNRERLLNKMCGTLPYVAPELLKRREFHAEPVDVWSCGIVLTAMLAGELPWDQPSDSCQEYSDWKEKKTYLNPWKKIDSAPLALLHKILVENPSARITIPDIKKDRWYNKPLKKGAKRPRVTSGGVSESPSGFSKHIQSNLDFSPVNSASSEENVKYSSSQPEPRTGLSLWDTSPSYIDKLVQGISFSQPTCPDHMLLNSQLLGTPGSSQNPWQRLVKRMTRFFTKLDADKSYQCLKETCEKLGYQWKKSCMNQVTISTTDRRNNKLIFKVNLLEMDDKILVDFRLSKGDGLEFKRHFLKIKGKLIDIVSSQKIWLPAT

[4] = target: T2, Ephrin type-A receptor 6 (Homo sapiens) (UniProt Q9UF33); experiment: Selectivity interaction (KinomeScan (DiscoverX)) EUB0000595a EPHA6; conditions: at 10 µM
T2 sequence (whole entry): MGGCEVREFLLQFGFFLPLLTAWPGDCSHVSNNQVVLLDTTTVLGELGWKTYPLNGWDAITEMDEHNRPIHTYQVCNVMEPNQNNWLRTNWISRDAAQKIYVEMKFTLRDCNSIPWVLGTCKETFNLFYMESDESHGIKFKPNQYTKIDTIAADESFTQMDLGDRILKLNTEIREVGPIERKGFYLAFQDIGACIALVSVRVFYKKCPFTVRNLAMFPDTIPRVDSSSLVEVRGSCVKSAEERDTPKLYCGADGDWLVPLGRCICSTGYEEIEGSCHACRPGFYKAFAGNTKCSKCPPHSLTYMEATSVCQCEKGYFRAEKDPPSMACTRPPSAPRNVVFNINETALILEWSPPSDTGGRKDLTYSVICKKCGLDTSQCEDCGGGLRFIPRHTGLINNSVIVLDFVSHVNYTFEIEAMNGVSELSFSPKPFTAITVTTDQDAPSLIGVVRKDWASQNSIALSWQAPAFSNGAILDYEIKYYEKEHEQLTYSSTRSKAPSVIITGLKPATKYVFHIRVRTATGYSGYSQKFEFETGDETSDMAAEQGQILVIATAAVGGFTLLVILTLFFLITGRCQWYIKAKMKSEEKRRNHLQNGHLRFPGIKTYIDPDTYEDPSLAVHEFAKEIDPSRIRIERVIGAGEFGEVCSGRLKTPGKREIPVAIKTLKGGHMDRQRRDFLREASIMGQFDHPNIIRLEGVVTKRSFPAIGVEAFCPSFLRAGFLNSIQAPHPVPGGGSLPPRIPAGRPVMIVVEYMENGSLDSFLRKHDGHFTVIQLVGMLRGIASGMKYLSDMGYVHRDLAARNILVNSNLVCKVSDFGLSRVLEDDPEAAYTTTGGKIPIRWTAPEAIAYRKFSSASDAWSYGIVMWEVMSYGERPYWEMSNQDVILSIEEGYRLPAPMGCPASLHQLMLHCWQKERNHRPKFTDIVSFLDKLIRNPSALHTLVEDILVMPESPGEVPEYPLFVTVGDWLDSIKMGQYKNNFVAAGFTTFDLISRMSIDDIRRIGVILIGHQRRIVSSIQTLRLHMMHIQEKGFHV

[5] = target: Ribosomal protein S6 kinase alpha-1 (Homo sapiens, UniProt Q15418); experiment: Selectivity interaction (ActivX KiNativ screen (kinase selectivity in THP-1 cell lysates)) EUB0000639a RPS6KA1; assay type: subcellular; conditions: lysate, at 0.2 µM
[6] = target: Death-associated protein kinase 1 (Homo sapiens, UniProt P53355); experiment: Selectivity interaction (KinomeScan (DiscoverX)) EUB0000666a DAPK1; conditions: at 10 µM
Sequence of Death-associated protein kinase 1 (P53355 whole entry, looked up): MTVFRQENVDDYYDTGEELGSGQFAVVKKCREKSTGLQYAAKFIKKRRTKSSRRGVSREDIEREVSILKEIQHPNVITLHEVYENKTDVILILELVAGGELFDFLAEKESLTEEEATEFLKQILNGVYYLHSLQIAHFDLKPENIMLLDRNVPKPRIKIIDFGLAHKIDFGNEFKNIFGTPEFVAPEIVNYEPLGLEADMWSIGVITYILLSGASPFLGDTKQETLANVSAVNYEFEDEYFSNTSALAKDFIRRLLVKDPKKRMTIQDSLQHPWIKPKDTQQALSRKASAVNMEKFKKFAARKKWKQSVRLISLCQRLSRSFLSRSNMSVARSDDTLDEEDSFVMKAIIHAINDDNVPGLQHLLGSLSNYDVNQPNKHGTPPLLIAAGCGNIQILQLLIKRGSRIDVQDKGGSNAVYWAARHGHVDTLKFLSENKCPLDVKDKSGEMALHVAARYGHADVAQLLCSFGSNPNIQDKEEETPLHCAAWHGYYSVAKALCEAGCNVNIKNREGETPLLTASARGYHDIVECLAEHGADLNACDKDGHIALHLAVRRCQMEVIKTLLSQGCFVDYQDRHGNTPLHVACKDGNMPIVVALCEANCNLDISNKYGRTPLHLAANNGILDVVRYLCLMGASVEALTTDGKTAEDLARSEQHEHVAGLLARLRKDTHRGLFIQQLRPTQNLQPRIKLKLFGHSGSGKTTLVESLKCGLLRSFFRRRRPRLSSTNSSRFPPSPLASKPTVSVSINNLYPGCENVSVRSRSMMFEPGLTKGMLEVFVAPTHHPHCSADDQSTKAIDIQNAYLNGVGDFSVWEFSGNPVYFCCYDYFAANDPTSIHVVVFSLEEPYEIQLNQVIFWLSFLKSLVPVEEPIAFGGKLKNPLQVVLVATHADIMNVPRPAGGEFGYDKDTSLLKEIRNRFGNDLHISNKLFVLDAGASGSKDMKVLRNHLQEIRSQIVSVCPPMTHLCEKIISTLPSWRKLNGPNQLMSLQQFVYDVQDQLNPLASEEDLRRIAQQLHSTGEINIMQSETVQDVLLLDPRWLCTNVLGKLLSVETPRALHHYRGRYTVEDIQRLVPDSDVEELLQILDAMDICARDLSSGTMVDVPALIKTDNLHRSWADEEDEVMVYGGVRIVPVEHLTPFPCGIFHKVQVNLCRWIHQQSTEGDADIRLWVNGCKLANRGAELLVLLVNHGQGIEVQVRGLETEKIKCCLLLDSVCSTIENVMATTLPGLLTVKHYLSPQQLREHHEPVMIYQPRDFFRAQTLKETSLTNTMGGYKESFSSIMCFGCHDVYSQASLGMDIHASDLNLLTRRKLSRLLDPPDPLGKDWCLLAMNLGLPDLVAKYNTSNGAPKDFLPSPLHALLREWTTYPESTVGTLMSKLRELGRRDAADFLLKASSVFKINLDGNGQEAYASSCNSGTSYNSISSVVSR

Sequence of Ribosomal protein S6 kinase alpha-1 (Q15418 whole entry): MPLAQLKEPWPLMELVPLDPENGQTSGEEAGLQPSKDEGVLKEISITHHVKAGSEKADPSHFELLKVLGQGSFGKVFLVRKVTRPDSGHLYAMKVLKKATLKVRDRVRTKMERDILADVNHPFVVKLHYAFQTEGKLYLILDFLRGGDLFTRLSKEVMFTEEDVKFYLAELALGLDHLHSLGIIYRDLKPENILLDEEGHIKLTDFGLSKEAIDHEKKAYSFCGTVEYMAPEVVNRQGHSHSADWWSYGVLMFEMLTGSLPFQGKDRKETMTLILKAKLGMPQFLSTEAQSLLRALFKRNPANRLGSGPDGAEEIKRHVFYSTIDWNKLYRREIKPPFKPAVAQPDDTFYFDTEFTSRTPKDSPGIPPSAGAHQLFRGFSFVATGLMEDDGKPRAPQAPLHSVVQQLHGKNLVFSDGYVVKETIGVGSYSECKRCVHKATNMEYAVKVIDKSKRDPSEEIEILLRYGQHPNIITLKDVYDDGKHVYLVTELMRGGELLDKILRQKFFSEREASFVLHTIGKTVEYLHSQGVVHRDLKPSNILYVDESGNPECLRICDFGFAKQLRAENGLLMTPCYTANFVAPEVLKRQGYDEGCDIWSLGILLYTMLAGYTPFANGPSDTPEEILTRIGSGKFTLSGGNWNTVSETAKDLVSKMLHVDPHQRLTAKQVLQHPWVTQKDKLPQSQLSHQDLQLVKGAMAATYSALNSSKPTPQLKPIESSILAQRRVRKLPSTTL
Sequence of Dual specificity protein kinase CLK1 (P49759 whole entry, looked up): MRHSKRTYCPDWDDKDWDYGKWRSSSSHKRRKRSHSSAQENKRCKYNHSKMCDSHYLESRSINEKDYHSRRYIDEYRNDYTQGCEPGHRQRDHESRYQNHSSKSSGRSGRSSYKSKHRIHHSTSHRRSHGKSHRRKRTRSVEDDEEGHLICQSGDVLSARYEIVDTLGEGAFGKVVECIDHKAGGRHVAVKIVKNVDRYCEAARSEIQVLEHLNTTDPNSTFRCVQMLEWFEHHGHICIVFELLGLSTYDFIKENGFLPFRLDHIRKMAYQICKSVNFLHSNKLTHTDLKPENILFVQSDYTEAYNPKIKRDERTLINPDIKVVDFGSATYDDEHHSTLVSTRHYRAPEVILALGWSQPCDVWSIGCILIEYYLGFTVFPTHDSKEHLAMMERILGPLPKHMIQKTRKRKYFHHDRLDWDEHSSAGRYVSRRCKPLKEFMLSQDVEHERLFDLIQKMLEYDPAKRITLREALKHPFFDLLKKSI
Sequence of Serine/threonine-protein kinase MRCK beta (Homo sapiens) (Q9Y5S2 whole entry): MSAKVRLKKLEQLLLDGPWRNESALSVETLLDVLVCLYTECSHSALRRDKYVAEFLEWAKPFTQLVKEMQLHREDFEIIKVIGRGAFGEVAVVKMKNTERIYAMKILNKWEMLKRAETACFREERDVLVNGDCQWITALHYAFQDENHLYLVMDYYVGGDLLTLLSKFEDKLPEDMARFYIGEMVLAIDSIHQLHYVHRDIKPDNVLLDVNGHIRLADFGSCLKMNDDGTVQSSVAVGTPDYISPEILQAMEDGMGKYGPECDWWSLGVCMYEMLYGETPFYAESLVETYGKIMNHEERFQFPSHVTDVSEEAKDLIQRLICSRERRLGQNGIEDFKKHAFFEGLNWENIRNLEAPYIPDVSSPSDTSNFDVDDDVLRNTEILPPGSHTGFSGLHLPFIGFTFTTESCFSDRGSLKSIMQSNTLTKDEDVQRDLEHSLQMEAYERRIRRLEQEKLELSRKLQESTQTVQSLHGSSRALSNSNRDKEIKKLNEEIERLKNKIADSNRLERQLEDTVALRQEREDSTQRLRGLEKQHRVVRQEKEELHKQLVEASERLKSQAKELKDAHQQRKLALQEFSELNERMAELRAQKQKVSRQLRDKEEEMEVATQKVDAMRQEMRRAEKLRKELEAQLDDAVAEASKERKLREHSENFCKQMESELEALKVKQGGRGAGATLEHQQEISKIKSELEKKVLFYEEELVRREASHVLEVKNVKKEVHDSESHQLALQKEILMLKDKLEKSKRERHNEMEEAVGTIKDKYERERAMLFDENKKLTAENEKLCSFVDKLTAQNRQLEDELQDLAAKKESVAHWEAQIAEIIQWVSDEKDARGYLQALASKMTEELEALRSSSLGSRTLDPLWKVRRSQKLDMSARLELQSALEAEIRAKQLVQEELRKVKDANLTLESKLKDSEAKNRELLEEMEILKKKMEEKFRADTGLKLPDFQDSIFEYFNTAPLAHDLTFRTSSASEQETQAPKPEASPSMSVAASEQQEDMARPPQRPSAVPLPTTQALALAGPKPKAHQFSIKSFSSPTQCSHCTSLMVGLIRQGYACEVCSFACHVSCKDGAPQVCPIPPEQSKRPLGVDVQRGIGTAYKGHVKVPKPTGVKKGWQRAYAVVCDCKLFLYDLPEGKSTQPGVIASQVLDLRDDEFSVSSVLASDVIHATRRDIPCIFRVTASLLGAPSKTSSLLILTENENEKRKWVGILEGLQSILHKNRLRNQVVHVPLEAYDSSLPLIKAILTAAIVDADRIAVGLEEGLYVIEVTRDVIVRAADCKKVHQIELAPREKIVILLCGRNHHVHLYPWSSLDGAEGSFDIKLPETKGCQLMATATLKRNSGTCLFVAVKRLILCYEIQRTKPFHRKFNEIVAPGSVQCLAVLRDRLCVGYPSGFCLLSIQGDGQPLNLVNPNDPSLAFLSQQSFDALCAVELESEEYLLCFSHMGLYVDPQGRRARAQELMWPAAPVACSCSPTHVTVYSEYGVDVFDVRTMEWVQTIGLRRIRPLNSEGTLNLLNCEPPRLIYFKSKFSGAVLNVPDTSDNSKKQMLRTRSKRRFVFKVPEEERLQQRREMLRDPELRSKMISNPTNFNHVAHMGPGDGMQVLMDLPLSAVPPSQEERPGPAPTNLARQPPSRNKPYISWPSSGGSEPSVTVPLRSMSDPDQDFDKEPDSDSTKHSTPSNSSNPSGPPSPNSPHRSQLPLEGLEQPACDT

SMILES: Nc1cnc(N2CCc3cc(S(=O)(=O)Nc4c(F)cc(Cl)cc4F)cc(N4CCCC4=O)c32)nc1 [TP-020n]
% of control [1]: 95%

SMILES: CNC(=O)Nc1ccc(-c2nc(N3CC4CCC(C3)O4)c3cnn(C4CCC5(CC4)OCCO5)c3n2)cc1
% of inhibition [2]: -3%

SMILES: COCC(=O)NC/C=C/c1ccc2ncnc(Nc3ccc(Oc4ccc(C)nc4)c(C)c3)c2c1 [CP-724714]
% of control [3]: 90% | % of control [4]: 96%

% of inhibition [5]: -12.2%
SMILES: CC[C@@H]1[C@H](F)C(=O)N[C@@H]1COc1nccc2cc(C(N)=O)c(OC)cc12 [ZIMLOVISERTIB]

SMILES: O=C(NOC[C@H](O)CO)c1ccc(F)c(F)c1Nc1ccc(I)cc1F
% of control [6]: 100%
